Experimental data as given in ChEMBL document CHEMBL6096716, “Second-Generation Cap Analogue Prodrugs for Targeting Aberrant Eukaryotic Translation Initiation Factor 4E Activity in Cancer” (ACS Med Chem Lett, 2025).
Calls of active or inactive are those of the source. The rule behind the calls is not given here.

Experiments:
[1] = biological target: T1, Eukaryotic translation initiation factor 4E (Homo sapiens, UniProt P06730); test: Competitive inhibition of human 10 his-tagged eIF4E extracted from Escherichia coli BL21 (DE3) cells incubated for 40 mins by fluorescence polarization assay
T1 sequence (P06730 whole entry): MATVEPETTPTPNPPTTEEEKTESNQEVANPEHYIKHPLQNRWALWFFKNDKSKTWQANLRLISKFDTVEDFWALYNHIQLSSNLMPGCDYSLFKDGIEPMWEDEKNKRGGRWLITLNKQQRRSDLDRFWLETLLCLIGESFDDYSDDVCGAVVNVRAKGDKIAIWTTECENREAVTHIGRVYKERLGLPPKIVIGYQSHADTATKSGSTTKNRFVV

[2] = biological target: T1, Eukaryotic translation initiation factor 4E; test: Induction of thermal stabilization of eIF4E in human HeLa cell lysates incubated for 1 hr at 42 to 52 degreeC by CETSA based Western blot analysis; format: subcellular
A2058 [3] = test: Antiproliferative activity against human A2058 cells harbouring BRAF V600E mutant assessed as cell death at 50 uM incubated for 48 hrs by Celltiter-glo assay; format: functional, cell-based
SK-MEL-2 = test: Antiproliferative activity against human SK-MEL-2 cells at 1.0 to 1.8 uM incubated for 48 hrs by Celltiter-glo assay; format: functional, cell-based; settings: dose 1-1.8 µM
A2058 [4] = test: Antiproliferative activity against human A2058 cells harbouring BRAF V600E mutant assessed as cell death incubated for 48 hrs by Celltiter-glo assay; format: functional, cell-based; settings: for EC50: A2058, 48 h; for Activity: dose 10-60 µM
A2058 [5] = test: Downregulation of CCND1 expression in human A2058 cells incubated for 6 hrs by Western blot analysis; format: functional, cell-based
A2058 [6] = test: Downregulation of CCND3 expression in human A2058 cells incubated for 6 hrs by Western blot analysis; format: functional, cell-based
A-375 = test: Antiproliferative activity against human A-375 cells incubated for 48 hrs by Celltiter-glo assay; format: functional, cell-based; settings: A-375, 48 h
A2058 [7] = test: Effect on c-Myc expression in human A2058 cells incubated for 6 hrs by Western blot analysis; format: functional, cell-based
A2058 [8] = test: Downregulation of ODC1 expression in human A2058 cells incubated for 6 hrs by Western blot analysis; format: functional, cell-based

Nc1nc2c(c(=O)[nH]1)[n+](Cc1cc3cc(Cl)ccc3o1)cn2Cc1cccc(CCP(=O)(O)O)c1 was tested, and the IC50 [1] was 4.1 µM and the Activity [2] was “Active”.
Nc1nc2c(c(=O)[nH]1)[n+](Cc1cc3cc(Cl)ccc3o1)cn2Cc1ccccc1CCP(=O)(O)O gave an IC50 [1] of 17.2 µM.
With CC(C)(C)C(=O)OCOP(=O)(Cc1cccc(Cn2c[n+](Cc3cc4cc(Cl)ccc4o3)c3c(=O)[nH]c(N)nc32)c1)OCOC(=O)C(C)(C)C the Activity (A2058 [3]) was “Active; Compound Found To Be Less Active”.
CC(C)(C)C(=O)OCOP(=O)(CCc1cccc(Cn2c[n+](Cc3cc4cc(Cl)ccc4o3)c3c(=O)[nH]c(N)nc32)c1)OCOC(=O)C(C)(C)C was tested, and the Activity (A2058 [3]) was “Active; Compound Showed Near Complete Cell Death”, the Activity (SK-MEL-2) was “inactive” and the EC50 (A2058 [4]) was 40 µM. The Activity (A2058 [4]) was “Dose-dependent-effect”, the Activity (A2058 [5]) was “Active” and the Activity (A2058 [6]) was “Active”. The EC50 (A-375) was 54 µM, the Activity (A2058 [7]) was “inactive” and the Activity (A2058 [8]) was “Active”.
For CC(C)(C)C(=O)OCOP(=O)(CCc1ccccc1Cn1c[n+](Cc2cc3cc(Cl)ccc3o2)c2c(=O)[nH]c(N)nc21)OCOC(=O)C(C)(C)C, the EC50 (A2058 [4]) was 51.3 µM and the Activity (A2058 [4]) was “Dose-dependent-effect”.
For CC(C)(C)C(=O)OCOP(=O)(CCc1ccc(Cn2c[n+](Cc3cc4cc(Cl)ccc4o3)c3c(=O)[nH]c(N)nc32)cc1)OCOC(=O)C(C)(C)C, the Activity (A2058 [4]) was “inactive”.
In the case of CC(C)(C)C(=O)OCOP(=O)(OCOC(=O)C(C)(C)C)c1cccc(Cn2c[n+](Cc3cc4cc(Cl)ccc4o3)c3c(=O)[nH]c(N)nc32)c1, the Activity (A2058 [3]) is reported as “Active; Compound Found To Be Less Active”.
With CC(C)(C)C(=O)OCOP(=O)(CCc1cccc(-n2c[n+](Cc3cc4cc(Cl)ccc4o3)c3c(=O)[nH]c(N)nc32)c1)OCOC(=O)C(C)(C)C the Activity (A2058 [3]) was “Active”.
